{"source": "patent US20260108547A1", "about": "“LEVERAGING L-FUCOSE-MEDIATED SIGNALING TO INDUCE MONOCYTE-DERIVED DENDRITIC CELL POLARIZATION” (H. LEE MOFFITT CANCER CENTER AND RESEARCH INSTITUTE, INC., priority 2022, published 2026)", "key": {"[1]": {"system": "CD209", "assay": "DC broad panel analysis and signaling array on phosphorylated proteins", "type": "cell-based", "excerpt": "To better understand the phenotype of DC subsets after L-fucose treatment, we preformed broad panel analysis to highlight unique subsets of DCs, including markers of activation, cross presentation and known signaling mechanisms. […] To determine if this increased expression was related to any other signaling changes we performed a signaling array on key phosphorylated proteins on activated DCs after L-fucose treatment. […] From this, we concluded that L-fucose increases expression of CD209 and modulates downstream signaling paths"}, "[2]": {"system": "HLA-DRB1", "assay": "Flow cytometric assessment of cell surface fucosylation and HLA-DRB1 in melanoma cells", "type": "cell-based, human", "conditions": "250 μM, 72 h; flow cytometry", "experimental": "(§1) Indicated cells were treated for 72 h with DMSO, 250 μM fucosyltransferase inhibitor (FUTi) (Millipore Sigma (St. Louis, MO)), or 250 μM of L-fucose (Biosynth (Oak Terrace, IL)). After 72 h, cells were stained with 0.1 μM PKH26 (Millipore Sigma (St. Louis, MO)) prior to fixation in 4% formaldehyde solution. The cells were stained with anti-HLA-DRB1 and fluorescein AAL, or anti-human or anti-mouse PD-L1 overnight. The following day the cells were washed 3 times prior to adding AlexaFluor 594 donkey anti-rabbit. Cells were washed 3 times and then subject to flow cytometric analyses using a FACSCalibur (BD Biosciences (San Jose, CA)). Samples were analyzed using FlowJo analysis software (BD Biosciences (San Jose, CA)). Median values of DRB1 and AAL were normalized to PKH26 values and statistical analysis was performed using GraphPad Prism."}, "[3]": {"system": "SM1 tumors", "assay": "Volumetric tumor growth, SM1 melanoma in C57BL/6 mice", "type": "in vivo, mouse", "conditions": "SM1 model", "excerpt": "(§2) All animals were housed at the Vincent A. Stabile Research building animal facility at H. Lee Moffitt Cancer Center & Research Institute, which is fully accredited by the Association for Assessment and Accreditation of Laboratory Animal Care International (AAALAC, #434), and are managed in accordance with the Guide for the Care and Use of Laboratory Animals (“The Guide”), the Animal Welfare Regulations Title 9 Code of Federal Regulations Subchapter A, “Animal Welfare”, Parts 1-3 (AWR), the Public Health Service Policy on Humane Care and Use of Laboratory Animals (PHS Policy), and by the USF Institutional Animal Care and Use Committee's Principles and Procedures of Animal Care and Use (IACUC Principles). The experiments and protocols detailed in this study received institutional approval by the Moffitt IACUC (RIS00001625). Four-to-six-week-old female C3H/HeN and male C57BL6 mice were purchased from Charles Rivers Laboratories for the indicated experiments. Four-to-six-week-old male NSG mice from the Lau laboratory breeding colony were used for the indicated experiments. Power calculations were used to determine mouse cohort sizes to detect significant changes in tumor sizes. […] Mouse tumor volumes were measured using length, width and depth divided by 2. […]"}, "[4]": {"system": "SW1 tumors", "assay": "DC clustering by CD11c in SW1 tumors from mice treated +/- L-fucose", "conditions": "mouse, in vivo"}, "[5]": {"system": "PD-L1", "assay": "Flow cytometric assessment of cell surface PD-L1, human melanoma cells (WM793)", "type": "cell-based", "experimental": "as §1"}, "[6]": {"system": "SW1 tumors", "assay": "SW1 tumor growth in NSG (immunodeficient) mice", "type": "in vivo, mouse", "excerpt": "as §2"}}, "data": [{"smiles": "C[C@H](O)[C@@H](O)[C@@H](O)[C@H](O)C=O", "note": "[L-fucose]", "values": [{"measurement": "CD209 expression", "setting": "[1]; DC subsets after L-fucose treatment", "result": "increase"}, {"measurement": "AKT and PARP (signaling array on phosphorylated proteins)", "setting": "[1]; activated DCs", "result": "significant decreases"}, {"measurement": "cell surface HLA-DRB1", "setting": "[2]", "result": "increased"}, {"measurement": "cell surface fucosylation", "setting": "[2]", "result": "increased"}, {"measurement": "tumor suppression, single agent", "setting": "[3]", "result": "less tumor suppressive than anti-PD1 alone"}, {"measurement": "tumor suppression in combination with anti-PD1", "setting": "[3]; L-fuc in combination with anti-PD1", "result": "augmented durable suppression"}, {"measurement": "DC clustering by CD11c in SW1 tumors", "setting": "[4]", "result": "increased DC clustering"}, {"measurement": "cell surface levels of PD-L1", "setting": "[5]", "result": "does not alter"}, {"measurement": "SW1 tumor growth in immunodeficient mice", "setting": "[6]", "result": "did not reduce"}]}]}
